Assays:
[1] = molecular target: Beta-1 adrenergic receptor (Homo sapiens) (UniProt P08588); settings: Compound concentration 10.0 uM
[2] = molecular target: ATP-sensitive inward rectifier potassium channel 11 (Cricetulus griseus) (UniProt A0A3L7HHE1); experiment: Inhibition of Potassium Channel [KATP] at 10 µM in the Eurofins-Panlabs radioligand binding assay (Eurofins_assay_265600); settings: Cricetinae; Compound concentration 10.0 uM
[3] = tested on: Tyrosine-protein kinase ABL1 (Homo sapiens), P00519 [E255K]; experiment: ABL1 E255K Kinase screen; settings: Compound concentration 1.0 uM
[4] = molecular target: Casein kinase I isoform gamma-2 (Homo sapiens) (UniProt P78368); experiment: CSNK1G2 (CK1 gamma 2) Kinase screen; settings: Compound concentration 1.0 uM
Sequence of Casein kinase I isoform gamma-2 (Homo sapiens) (P78368 whole entry, looked up, canonical isoform): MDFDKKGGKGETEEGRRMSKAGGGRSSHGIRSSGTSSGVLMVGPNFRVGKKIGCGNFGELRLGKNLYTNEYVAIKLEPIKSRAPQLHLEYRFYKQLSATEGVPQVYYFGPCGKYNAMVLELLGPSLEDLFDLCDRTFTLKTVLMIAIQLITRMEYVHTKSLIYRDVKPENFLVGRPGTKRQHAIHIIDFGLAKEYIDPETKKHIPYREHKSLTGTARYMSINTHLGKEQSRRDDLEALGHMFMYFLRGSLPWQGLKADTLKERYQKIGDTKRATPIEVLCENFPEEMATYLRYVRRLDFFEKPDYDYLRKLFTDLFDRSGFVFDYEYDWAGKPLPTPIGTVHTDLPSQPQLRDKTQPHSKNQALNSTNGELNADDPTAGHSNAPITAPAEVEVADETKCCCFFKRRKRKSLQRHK

[5] = molecular target: DNA-dependent protein kinase catalytic subunit (Homo sapiens) (UniProt P78527); experiment: DNA-PK Kinase screen; settings: Compound concentration 1.0 uM
[6] = molecular target: T1, Ephrin type-A receptor 1 (Homo sapiens) (UniProt P21709); experiment: EPHA1 Kinase screen; settings: Compound concentration 1.0 uM
T1 sequence (whole entry): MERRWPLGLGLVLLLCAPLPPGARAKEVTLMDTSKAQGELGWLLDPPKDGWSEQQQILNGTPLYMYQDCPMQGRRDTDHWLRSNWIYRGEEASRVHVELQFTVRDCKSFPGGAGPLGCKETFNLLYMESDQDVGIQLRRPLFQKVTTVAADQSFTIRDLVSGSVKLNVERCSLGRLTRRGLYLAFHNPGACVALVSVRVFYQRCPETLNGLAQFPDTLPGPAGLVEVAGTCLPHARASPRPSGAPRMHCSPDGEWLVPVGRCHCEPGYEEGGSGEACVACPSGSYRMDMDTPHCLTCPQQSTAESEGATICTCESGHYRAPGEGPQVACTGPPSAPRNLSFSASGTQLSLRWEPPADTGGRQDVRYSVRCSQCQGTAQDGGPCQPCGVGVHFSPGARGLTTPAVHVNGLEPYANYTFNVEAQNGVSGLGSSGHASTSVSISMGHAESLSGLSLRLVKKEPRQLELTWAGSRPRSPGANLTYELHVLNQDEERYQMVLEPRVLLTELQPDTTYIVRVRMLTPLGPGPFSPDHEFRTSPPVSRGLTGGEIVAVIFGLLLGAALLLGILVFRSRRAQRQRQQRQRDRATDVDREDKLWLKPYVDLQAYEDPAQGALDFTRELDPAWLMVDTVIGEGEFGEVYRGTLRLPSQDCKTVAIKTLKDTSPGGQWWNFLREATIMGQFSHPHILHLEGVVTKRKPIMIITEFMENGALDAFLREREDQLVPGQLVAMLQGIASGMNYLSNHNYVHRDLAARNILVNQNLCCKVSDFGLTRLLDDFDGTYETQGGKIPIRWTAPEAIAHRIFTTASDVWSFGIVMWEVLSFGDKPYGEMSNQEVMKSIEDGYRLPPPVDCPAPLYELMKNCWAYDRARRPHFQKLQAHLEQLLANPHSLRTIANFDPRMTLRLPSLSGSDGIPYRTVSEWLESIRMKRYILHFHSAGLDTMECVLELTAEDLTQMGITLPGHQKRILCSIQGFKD

[7] = molecular target: Mitogen-activated protein kinase 3 (Homo sapiens) (UniProt P27361); experiment: MAPK3 (ERK1) Kinase screen; settings: Compound concentration 1.0 uM
Sequence of Mitogen-activated protein kinase 3 (Homo sapiens) (P27361 whole entry): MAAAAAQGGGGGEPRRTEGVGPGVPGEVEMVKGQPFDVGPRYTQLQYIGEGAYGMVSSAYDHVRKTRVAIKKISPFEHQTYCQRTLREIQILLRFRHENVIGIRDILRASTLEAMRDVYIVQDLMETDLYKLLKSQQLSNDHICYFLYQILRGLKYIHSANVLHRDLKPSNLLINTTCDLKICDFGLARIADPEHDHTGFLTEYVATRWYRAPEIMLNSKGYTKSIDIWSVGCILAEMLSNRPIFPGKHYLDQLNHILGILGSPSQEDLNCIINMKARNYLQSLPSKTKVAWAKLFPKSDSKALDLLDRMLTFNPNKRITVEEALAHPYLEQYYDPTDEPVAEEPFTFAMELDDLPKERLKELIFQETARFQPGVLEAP

[8] = molecular target: Serine/threonine-protein kinase Nek6 (Homo sapiens) (UniProt Q9HC98); experiment: NEK6 Kinase screen; settings: Compound concentration 1.0 uM
[9] = molecular target: Serine/threonine-protein kinase PAK 1 (Homo sapiens) (UniProt Q13153); experiment: PAK1 Kinase screen; settings: Compound concentration 1.0 uM
Sequence of Serine/threonine-protein kinase PAK 1 (Homo sapiens) (Q13153 whole entry): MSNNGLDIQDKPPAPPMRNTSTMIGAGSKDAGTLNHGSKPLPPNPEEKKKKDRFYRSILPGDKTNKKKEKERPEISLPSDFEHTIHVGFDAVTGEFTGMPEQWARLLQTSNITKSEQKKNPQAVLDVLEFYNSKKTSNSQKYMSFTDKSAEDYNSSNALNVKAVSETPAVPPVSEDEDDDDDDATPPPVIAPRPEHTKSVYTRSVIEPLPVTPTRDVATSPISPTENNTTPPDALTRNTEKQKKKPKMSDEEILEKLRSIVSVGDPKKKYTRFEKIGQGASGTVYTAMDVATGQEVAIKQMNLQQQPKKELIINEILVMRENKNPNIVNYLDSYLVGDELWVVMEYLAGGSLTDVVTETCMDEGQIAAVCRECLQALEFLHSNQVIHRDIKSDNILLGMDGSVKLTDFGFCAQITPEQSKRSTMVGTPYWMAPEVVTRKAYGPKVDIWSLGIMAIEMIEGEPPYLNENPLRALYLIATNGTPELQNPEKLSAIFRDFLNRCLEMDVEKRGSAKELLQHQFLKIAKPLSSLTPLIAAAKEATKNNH

[10] = molecular target: Serine/threonine-protein kinase PAK 3 (Homo sapiens) (UniProt O75914); experiment: PAK3 Kinase screen; settings: Compound concentration 1.0 uM
Sequence of Serine/threonine-protein kinase PAK 3 (Homo sapiens) (O75914 whole entry, looked up): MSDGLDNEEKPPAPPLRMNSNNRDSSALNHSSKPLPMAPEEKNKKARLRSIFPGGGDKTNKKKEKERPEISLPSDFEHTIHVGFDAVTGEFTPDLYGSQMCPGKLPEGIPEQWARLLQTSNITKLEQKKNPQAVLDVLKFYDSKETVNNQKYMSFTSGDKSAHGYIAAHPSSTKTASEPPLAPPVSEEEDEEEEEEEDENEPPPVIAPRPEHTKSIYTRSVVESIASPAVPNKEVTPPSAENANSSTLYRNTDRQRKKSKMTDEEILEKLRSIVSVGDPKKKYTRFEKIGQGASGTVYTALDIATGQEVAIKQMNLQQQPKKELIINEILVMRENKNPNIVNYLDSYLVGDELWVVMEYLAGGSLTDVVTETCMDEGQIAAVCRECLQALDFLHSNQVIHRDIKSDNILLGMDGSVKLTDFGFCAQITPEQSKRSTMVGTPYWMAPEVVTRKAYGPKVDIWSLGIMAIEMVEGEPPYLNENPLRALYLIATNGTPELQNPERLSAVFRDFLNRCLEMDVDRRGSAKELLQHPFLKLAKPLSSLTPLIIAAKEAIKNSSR

[11] = molecular target: Serine/threonine-protein kinase PAK 6 (Homo sapiens) (UniProt Q9NQU5); experiment: PAK6 Kinase screen; settings: Compound concentration 1.0 uM
Sequence of Serine/threonine-protein kinase PAK 6 (Homo sapiens) (Q9NQU5 whole entry, looked up): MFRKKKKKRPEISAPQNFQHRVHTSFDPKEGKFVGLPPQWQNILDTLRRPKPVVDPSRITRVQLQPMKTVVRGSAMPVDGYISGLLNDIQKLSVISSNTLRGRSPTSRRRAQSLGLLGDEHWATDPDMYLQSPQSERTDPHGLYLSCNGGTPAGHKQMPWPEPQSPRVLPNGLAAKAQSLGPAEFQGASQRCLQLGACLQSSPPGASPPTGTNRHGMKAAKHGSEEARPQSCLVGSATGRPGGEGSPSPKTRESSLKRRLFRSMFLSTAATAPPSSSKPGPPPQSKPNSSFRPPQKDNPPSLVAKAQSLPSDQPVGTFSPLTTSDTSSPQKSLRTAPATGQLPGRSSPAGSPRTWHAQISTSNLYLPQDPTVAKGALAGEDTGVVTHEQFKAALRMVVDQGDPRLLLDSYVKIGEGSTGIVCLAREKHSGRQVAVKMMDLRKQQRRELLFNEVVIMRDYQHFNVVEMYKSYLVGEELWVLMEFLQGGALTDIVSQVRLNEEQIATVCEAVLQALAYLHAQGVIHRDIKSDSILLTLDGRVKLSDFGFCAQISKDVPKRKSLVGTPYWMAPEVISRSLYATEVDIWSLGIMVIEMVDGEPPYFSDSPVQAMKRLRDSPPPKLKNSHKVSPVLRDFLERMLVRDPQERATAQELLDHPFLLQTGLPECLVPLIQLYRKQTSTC

[12] = molecular target: T2, Protein kinase C iota type (Homo sapiens) (UniProt P41743); experiment: PRKCI (PKC iota) Kinase screen; settings: Compound concentration 1.0 uM
T2 sequence (whole entry): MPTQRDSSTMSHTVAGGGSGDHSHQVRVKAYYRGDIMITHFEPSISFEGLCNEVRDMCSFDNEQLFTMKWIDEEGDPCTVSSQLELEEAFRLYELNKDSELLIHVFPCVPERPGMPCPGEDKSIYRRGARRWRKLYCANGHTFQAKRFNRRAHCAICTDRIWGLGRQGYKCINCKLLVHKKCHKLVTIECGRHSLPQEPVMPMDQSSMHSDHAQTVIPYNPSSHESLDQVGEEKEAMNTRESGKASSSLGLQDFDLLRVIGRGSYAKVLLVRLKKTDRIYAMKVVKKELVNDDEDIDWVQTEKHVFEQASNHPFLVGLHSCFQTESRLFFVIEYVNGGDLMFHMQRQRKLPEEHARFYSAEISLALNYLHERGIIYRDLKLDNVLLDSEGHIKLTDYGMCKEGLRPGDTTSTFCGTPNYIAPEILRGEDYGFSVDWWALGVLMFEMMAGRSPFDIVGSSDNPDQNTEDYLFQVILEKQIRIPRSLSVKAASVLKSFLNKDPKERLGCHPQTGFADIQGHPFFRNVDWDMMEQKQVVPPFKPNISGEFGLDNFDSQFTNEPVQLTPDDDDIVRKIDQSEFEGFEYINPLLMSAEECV

[13] = molecular target: Non-receptor tyrosine-protein kinase TYK2 (Homo sapiens) (UniProt P29597); experiment: TYK2 Kinase screen; settings: Compound concentration 1.0 uM
Sequence of Non-receptor tyrosine-protein kinase TYK2 (Homo sapiens) (P29597 whole entry): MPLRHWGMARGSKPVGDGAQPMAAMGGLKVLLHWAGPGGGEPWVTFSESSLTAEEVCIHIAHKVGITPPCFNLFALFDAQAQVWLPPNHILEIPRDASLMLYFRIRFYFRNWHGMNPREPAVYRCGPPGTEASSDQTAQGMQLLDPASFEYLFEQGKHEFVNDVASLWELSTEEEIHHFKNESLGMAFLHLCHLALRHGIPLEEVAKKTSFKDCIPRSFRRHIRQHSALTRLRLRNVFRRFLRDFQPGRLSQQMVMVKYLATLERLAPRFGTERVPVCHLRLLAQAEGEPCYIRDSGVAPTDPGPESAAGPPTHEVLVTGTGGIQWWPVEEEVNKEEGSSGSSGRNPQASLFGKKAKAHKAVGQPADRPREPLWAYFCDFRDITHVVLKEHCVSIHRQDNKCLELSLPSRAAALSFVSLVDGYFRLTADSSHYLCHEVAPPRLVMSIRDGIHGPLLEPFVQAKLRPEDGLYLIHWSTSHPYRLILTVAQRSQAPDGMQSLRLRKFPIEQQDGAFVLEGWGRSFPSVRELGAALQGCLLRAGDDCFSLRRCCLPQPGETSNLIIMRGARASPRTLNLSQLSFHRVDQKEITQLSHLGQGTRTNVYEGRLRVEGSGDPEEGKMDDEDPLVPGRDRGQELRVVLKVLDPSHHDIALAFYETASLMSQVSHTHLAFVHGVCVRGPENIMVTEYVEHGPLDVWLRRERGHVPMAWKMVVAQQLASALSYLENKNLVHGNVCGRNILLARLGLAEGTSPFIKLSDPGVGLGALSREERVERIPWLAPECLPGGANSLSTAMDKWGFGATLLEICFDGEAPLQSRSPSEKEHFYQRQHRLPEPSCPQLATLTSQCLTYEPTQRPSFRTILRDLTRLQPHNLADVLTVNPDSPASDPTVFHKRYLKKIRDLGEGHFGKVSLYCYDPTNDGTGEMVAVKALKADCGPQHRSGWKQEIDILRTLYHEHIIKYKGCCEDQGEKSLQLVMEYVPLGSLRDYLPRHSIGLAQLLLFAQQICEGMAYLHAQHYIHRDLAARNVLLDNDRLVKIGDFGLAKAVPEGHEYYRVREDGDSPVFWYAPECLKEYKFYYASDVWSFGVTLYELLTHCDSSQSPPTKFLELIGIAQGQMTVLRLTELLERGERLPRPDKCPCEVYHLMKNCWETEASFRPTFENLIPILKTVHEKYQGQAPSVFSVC

[14] = molecular target: Corticotropin-releasing factor receptor 1 (Homo sapiens) (UniProt P34998); experiment: Corticotropin Releasing Factor CRF1 Eurofins-Panlabs radioligand binding assay; settings: Compound concentration 10.0 uM
[15] = molecular target: Cannabinoid receptor 1 (Homo sapiens) (UniProt P21554); settings: Compound concentration 10.0 uM
[16] = molecular target: Glucocorticoid receptor (Homo sapiens) (UniProt P04150); settings: Compound concentration 10.0 uM
Sequence of Glucocorticoid receptor (Homo sapiens) (P04150 whole entry): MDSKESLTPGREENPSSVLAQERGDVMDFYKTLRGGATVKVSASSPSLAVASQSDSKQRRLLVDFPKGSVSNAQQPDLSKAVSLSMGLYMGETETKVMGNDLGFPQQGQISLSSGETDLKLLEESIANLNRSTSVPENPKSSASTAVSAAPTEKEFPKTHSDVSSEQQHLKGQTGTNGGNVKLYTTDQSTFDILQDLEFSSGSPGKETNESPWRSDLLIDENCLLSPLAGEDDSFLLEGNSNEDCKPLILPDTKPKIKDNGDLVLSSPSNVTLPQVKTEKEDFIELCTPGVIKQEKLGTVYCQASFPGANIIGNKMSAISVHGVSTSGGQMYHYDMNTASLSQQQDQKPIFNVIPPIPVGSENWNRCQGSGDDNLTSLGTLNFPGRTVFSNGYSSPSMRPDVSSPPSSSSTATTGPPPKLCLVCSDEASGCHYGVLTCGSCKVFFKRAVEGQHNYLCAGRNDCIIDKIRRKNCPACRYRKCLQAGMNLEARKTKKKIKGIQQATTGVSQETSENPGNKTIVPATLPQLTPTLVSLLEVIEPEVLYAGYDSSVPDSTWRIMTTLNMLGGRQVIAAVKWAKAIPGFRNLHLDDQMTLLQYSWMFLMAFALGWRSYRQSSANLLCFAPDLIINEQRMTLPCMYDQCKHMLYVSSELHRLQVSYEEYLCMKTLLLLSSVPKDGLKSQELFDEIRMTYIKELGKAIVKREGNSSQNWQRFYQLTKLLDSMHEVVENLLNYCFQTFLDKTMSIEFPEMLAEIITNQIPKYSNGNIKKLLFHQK

Measured: inhibition

Sequence of Beta-1 adrenergic receptor (Homo sapiens) (P08588 whole entry, looked up): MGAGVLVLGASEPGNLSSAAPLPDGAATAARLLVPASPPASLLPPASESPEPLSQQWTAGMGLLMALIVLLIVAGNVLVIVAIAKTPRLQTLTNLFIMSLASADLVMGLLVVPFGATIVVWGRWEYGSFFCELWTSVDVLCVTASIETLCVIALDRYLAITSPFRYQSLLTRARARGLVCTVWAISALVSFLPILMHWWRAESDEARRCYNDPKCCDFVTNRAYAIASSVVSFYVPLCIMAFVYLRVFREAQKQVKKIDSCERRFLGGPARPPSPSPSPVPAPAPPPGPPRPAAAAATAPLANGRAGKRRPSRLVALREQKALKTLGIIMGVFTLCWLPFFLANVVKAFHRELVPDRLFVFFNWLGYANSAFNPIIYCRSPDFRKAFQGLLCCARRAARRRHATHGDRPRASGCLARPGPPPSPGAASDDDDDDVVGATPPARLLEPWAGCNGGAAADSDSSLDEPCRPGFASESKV

C[C@@H]1CN(c2cc(-c3nn(C)c4ccc(OC5(C)CC5)cc34)ncn2)C[C@H](C)O1 [MLi-2-NC]
inactive: [1] 5.75%

C[C@@H]1CN(c2cc(-c3n[nH]c4ccc(OC5(C)CC5)cc34)ncn2)C[C@H](C)O1 [MLi-2]
inactive: [2] 18% | [3] 4.43% | [4] 2.4% | [5] 21.6% | [6] 7.77% | [7] 18.7% | [8] 4.75% | [9] 6.76% | [10] 10.9% | [11] 1.67% | [12] -0.512% | [13] 1.17% | [14] 6% | [15] 20% | [16] 19%

Source: ChEMBL document CHEMBL4507291 (2021)
